# From patent US4661602A, “Substituted alkyl imidazole derivatives” (G. D. Searle & Co., priority 1985, dated 1987)
# Where two headings read alike, the source gives them in different places.
# How the values were obtained:
# [1] = test system: Peptococc. magnus ATCC 29328; assay: Anti-anaerobic activity, additional strains; assay type: cell-based
# [2] = test system: P. acnes NCTC 7337; assay: Anti-anaerobic activity, additional strains; assay type: cell-based, Propionibacterium acnes; details: Cutibacterium acnes, NCTC7337
# [3] = test system: P. prevotti ATCC 9321; assay: Anti-anaerobic activity, additional strains; assay type: cell-based; details: P. prevotti ATCC 9321
# [4] = test system: B. Fragilis WS-1; assay: Anti-anaerobic activity, strain E (microtitre plate MIC/MBC); assay type: cell-based; details: Bacteroides fragilis, 48 h
# [5] = test system: B. Fragilis NCTC 10581; assay: Anti-anaerobic activity, strain A (microtitre plate MIC/MBC); assay type: cell-based, Bacteroides fragilis
# [6] = test system: Trichomonas vaginalis; assay: MIC against Trichomonas vaginalis (Diamonds Medium); assay type: cell-based; details: Diamonds Medium, lowest concentration at which no mobile organisms are viable microscopically, read-out: MIC
# [7] = test system: Propionibacterium acnes NCTC 737; assay: Anti-anaerobic activity, additional strains; assay type: cell-based; details: Cutibacterium acnes, NCTC737
# [8] = test system: Cl. perfringens NCTC 8237; assay: microbe, parasite or virus in culture; assay type: cell-based; details: Clostridium perfringens, NCTC8237
# [9] = test system: Clostridium perfringens NCTC 523; assay: microbe, parasite or virus in culture; assay type: cell-based; details: NCTC523
# [10] = test system: Campl. fetus ATCC 29428; assay: Anti-anaerobic activity, additional strains; assay type: cell-based; details: Campylobacter fetus, ATCC29428
# [11] = test system: B. Fragilis NCTC 9344; assay: Anti-anaerobic activity, strain C (microtitre plate MIC/MBC); assay type: cell-based; details: Bacteroides fragilis, NCTC9344, 48 h
# [12] = test system: Peptostrepto anaerobicus ATCC 27337; assay: Anti-anaerobic activity, additional strains; assay type: cell-based; details: Peptostrepto anaerobicus ATCC 27337
# [13] = test system: B. Fragilis NCTC 9343; assay: Anti-anaerobic activity, strain B (microtitre plate MIC/MBC); assay type: cell-based, Bacteroides fragilis; details: for MIC: strain B, 48 hours, 37° C., anaerobic chamber, lowest concentration with no detectable growth
# [14] = test system: Fuso. necrophorum ATCC 11295; assay: Anti-anaerobic activity, additional strains; assay type: cell-based; details: Fusobacterium necrophorum, ATCC11295
# [15] = test system: B. Fragilis ATCC 11295; assay: Anti-anaerobic activity, strain D (microtitre plate MIC/MBC); assay type: cell-based; details: Bacteroides fragilis, ATCC11295, 48 h
# [16] = Bacteroides fragilis, NCTC10581, 48 h
# [17] = Bacteroides fragilis, NCTC9343, 48 h
smiles,measurement,setting,value
"Cc1ncc([N+](=O)[O-])n1CCO [Metronidazole, reference compound]",MBC,[1],10 µg/mL
same,MIC,[1]; Peptococc. magnus ATCC 29328,0.6 µg/mL
same,MBC,[2],10 µg/mL
same,MIC,[2],10 µg/mL
same,MBC,[3],2.5 µg/mL
same,MIC,[3]; read-out: MIC,1.2 µg/mL
same,MBC,[4],1.2 µg/mL
same,MIC,[4],0.8 µg/mL
same,MBC,[5]; [16],1.2 µg/mL
same,MIC,[5]; [16],0.8 µg/mL
same,MIC,"[5]; Bacteroides fragilis, NCTC10581, 48 h, strain A, 48 hours, 37° C., anaerobic chamber, lowest concentration with no detectable growth, read-out: MIC",0.6 µg/mL
same,MIC,"[5]; strain A, 48 hours, 37° C., anaerobic chamber, lowest concentration with no detectable growth",1.2 µg/mL
same,MIC,[6],0.6 µg/mL
same,MBC,[7],10 µg/mL
same,MIC,[7],10 µg/mL
same,MBC,[8],10 µg/mL
same,MIC,[8],10 µg/mL
same,MBC,[9],1.2 µg/mL
same,MIC,[9],0.08 µg/mL
same,MBC,[10],10 µg/mL
same,MIC,[10],10 µg/mL
same,MBC,[11],1.2 µg/mL
same,MIC,[11],0.8 µg/mL
same,MIC,[12],0.3 µg/mL
same,MBC,[12]; read-out: MBC,0.3 µg/mL
same,MBC,[13]; [17],1.2 µg/mL
same,MIC,[13]; [17],1.5 µg/mL
same,MIC,[13],0.8 µg/mL
same,MBC,[14],10 µg/mL
same,MIC,[14],10 µg/mL
same,MBC,[15],10 µg/mL
